# Patent US11865157B2, “Compositions and methods of targeting cancer stem cells” (University of Houston System, priority 2016, dated 2024)
# Numbered stars: 1 amine (or outer) side, 2 acyl side, 3 side chain; on linkers, the order of the positions; unused ones are H or OH. Square brackets hold non-standard residues; d marks the D form. Peptide text beside a SMILES is read from it. ξ: configuration not given here. Gly(N-piperonyl) = O=C(O)CNCc1ccc2c(c1)OCO2; X1 = CC(c1ccccc1)N(CC(=O)[*:2])[*:1]; Nlys = NCCCCNCC(=O)O; ξK = NCCCCC(N)C(=O)O; ξM = CSCCC(N)C(=O)O; Nme = COCCNCC(=O)O
# How the values were obtained:
# Type in all cases: cell-based
# H358 cells [1] = assay: Clonogenicity assay under treatment; settings: 500 cells/well, 30 and 100 μM, 2 weeks
# Experimental: To further validate that PCS2D1 inhibiting CSCs, the effects of PCS2D1 against a stem-cell-associated phenotype were studied with regards to the capacity to form colonies from a single cell by using the clonogenicity assay. About 300 cells were plated onto 35 mm cell culture plates with either 0, 1, 10, 30, or 100 μM of PCS2D1, and allowed to grow for 2 weeks. After staining with crystal violet, both the number of colonies and the overall morphology of the colonies were evaluated.
# The clonogenicity assay was repeated with H358 cells, 500 cells/well, using 0, 10, 30 and 100 μM PCS2 treatment over 2 weeks. […] To confirm that this was due to the specific targeting on CSCs, the clonogenicity assay was performed again over 8 days, with the treatment performed from day 7 to 8 instead, to allow the colonies to establish. This was done alongside control cells plated on chamber slides and then grown under the same conditions.
# [2] = test system: lung cancer cell lines (HCC4017, H358, H366, H460, H1299, H2073, H1693, H1993, H1975); assay: RT-qPCR of CSC markers and PLEC in PCS2-bead bound vs unbound fractions of lung cancer cell lines
# Experimental: Using the same basic approach, peptoid-bound and peptoid-unbound fractions were generated from the lung cancer cells lines HCC4017, H358, H366, H460 for the PCS2 compound, and the relative expression of CSC marker SOX2 was evaluated between each fraction.
# To confirm the binding specificity of PCS2 to CSCs, CSCs isolated from H358 cells and normal mesenchymal stem cells (MSCs) were exposed to PCS2-carrying beads as described in Example 3, and then separated by magnet into peptoid-bound and peptoid-unbound fractions (FIG. 19A). […] To further evaluate PCS2 specificity towards CSCs, HCC4017, H460, H1299, H2073, H1693, H1993, and H1975 cells were exposed to PCS2-carrying beads, and then separated by magnet into peptoid-bound and peptoid-unbound fractions. RNA from both bound and unbound fractions was harvested and analyzed by RT-qPCR to determine the relative expression of several known CSC biomarkers in each fraction was assessed, including expression of ALDH1A3 (FIG. 19B), CD133 (FIG. 19C), CD44 (FIG. 19D), and SOX2 (FIG. 19E). CD44 and SOX2 expressions were high on PCS2-coated magnetic-bead bound fractions from the almost all cell lines having higher expression of CSC biomarkers compared to the unsorted or unbound fractions confirming that the capacity of PCS2 to bind to CSCs is not exclusive to H358 cells. The correlation to ALDH1A3 and CD133 were varied, which is typical due to the high heterogeneity of CSC biomarker expressions, and there are no 100% biomarker correlations exists.
# Plectin expression was directed tested on PCS2-bound cells from H358, HCC4017, H460, H1299, H2073, H1693, H1993, H1975 cells by RT-QPCR (FIG. 22A). […] To determine if PCS2 and the plectin antibody compete for binding, the magnetic-bead binding assay was repeated in the presence of the plectin antibody. […] Since previous reports have shown cells to be sufficiently stable for further assays with plectin knock-down, plectin knockdown was conducted in H358, H1693, H1975 and H1993 cells using siRNA using the magnetic-bead binding assay described above. […] From these observations, it was concluded that plectin is the cell-surface marker that PCS2 is targeting.
# H358 cells [3] = assay: Magnetic-bead pull-down assay
# Experimental: On-bead binding assay: 50 mg of peptoid-carrying tentagel beads or 1.3×10^6 of peptoid-carrying magnetic beads were equilibrated in 2 mL RPMI containing 5% FBS and 3% BSA (Sigma) for 1 hour by shaking. The beads can then be equilibrated with 5×10^6 of each cancer cell type listed above in 2 mL RPMI containing 5% FBS and 1% BSA at room temperature for 15-60 minutes for binding. The cell-bound beads are then pulled down with a magnet and washed with RPMI to cleanly harvest bound cells. Unbound cells were collected separately for further confirmations.
# To confirm the binding specificity of PCS2 to CSCs, CSCs isolated from H358 cells and normal mesenchymal stem cells (MSCs) were exposed to PCS2-carrying beads as described in Example 3, and then separated by magnet into peptoid-bound and peptoid-unbound fractions (FIG. 19A). […] RNA from both bound and unbound fractions was harvested and analyzed by RT-qPCR to determine the relative expression of several known CSC biomarkers in each fraction was assessed, including expression of ALDH1A3 (FIG. 19B), CD133 (FIG. 19C), CD44 (FIG. 19D), and SOX2 (FIG. 19E). […]
# To further evaluate this plectin-CSC connection, it was confirmed that CSCs can be isolated through cell surface plectin via a PCS2-independent approach. […] Next the mRNA levels of two known CSC biomarkers was analyzed on these cell groups by RT-QPCR, along with plectin (PLEC). […]
# H358 cells [4] = assay: Colony formation assay of bead-bound, unbound and unsorted fractions; settings: 2 weeks of growth, crystal violet
# Experimental: A colony formation assay was performed on the untreated H358 cells and PCS2-bound and PCS2-unbound fractions to further confirm that the cells bound by PCS2 were CSCs. About 500 cells from each of the three fractions were plated into […] wells and grown for 2 weeks. The resulting colonies were then stained with crystal violet.
# A colony formation assay was performed on the untreated H358 cells and PCS2-bound and PCS2-unbound fractions to further confirm that the cells bound by PCS2 were CSCs. About 300-500 cells from each of cell group were plated into […] wells and grown for 2 weeks or until colonies were visible by eye. The resulting colonies were then stained with crystal violet for approximately 5 minutes and colonies were counted using the MOESM software program, and confirmed though microscopic counting.
# It was determined that the presence of plectin contributes to colony formation and wound healing potential of H358 cells. Plectin antibody-coated magnetic-bead bound fractions form a higher number of colonies compared to unbound and unseparated fraction in the clonogenicity assay in H358 cells The clonogenecity after plectin knockdown was then tested in H358, H460, and H2073 cells (FIG. 25C, 25D). Knockdown of plectin decreases colony formation in H358, H460 and H2073 cells. Knockdown of plectin leads to a decrease in mobility and scratch healing in H358 cells. […]
# [5] = HCC4017, H460, H1299, H2073, H1693, H1993, H1975, almost all cell lines
smiles,measurement,setting,value
COCCNCC(=O)N(CCCCN)CC(=O)N(CC(=O)N(CC(=O)N(CCCCN)CC(=O)NC(CCCCN)C(=O)N[C@H](CCCCN)C(=O)NC(CCSC)C(N)=O)C(C)c1ccccc1)Cc1ccc2c(c1)OCO2 (some centres unmarked) [PCS2] (H-[Nme][Nlys][Gly(N-piperonyl)][X1][Nlys][ξK][dK][ξM]-NH2),colonies formed,H358 cells [1],Significantly fewer colonies formed
same,Plectin expression in PCS2-bound cells vs unbound cells,"[2]; H358, HCC4017, H460, H1299, H2073, H1693, H1993, H1975, RT-QPCR",significantly higher
same,relative expression of SOX2 in PCS2-bead fractions,"[2]; HCC4017, H358, H366, H460, vs unsorted or unbound fractions",increased expression of SOX2
same,CD44 expression in PCS2-coated magnetic-bead bound fractions,[2]; [5],high
same,SOX2 expression in PCS2-coated magnetic-bead bound fractions,[2]; [5],high
same,binding of PCS2 beads to CSCs from H358 vs normal MSCs,H358 cells [3]; bound vs unbound fractions,bound significantly higher on CSCs from H358 than normal MSCs
same,cells isolated (pull-down) from H358,H358 cells [3]; coated magnetic beads,28-38%
same,number of colonies from bead-bound fraction vs unbound or unsorted fractions,H358 cells [4],significantly higher number of colonies
